Measured values: publication PMC6471591, “Preparation of Sesquiterpene Lactone Derivatives: Cytotoxic Activity and Selectivity of Action” (Molecules, 2019)
Read-outs that look alike come from different tables or passages of the source.

Tests used:
A549 cells [1] = assay: Antiproliferative SRB assay (NCI protocol), 48 h; assay type: cell-based; details: Homo sapiens, read-out: 50% growth inhibition (GI50) ± SD, A549
Method: (§1) In vitro antiproliferative activity was evaluated using the protocol of the National Cancer Institute (NCI) after 48 h of drug exposure using the sulforhodamine B (SRB) assay. […] We cannot discard that increasing lipophilicity may well result in an increase in cytotoxicity in vitro.
(§2) The following human solid tumor cell lines were used in this study: HBL-100 (breast), HeLa (cervix), SW1573 (non-small cell lung), T-47D (breast), A549 (lung), and WiDr (colon). Cells were maintained in 25 cm^2 culture flasks in RPMI 1640 supplemented with 5% heat-inactivated fetal calf serum and 2 mM L-glutamine in a 37 °C, 5% CO2, 95% humidified air incubator. Exponentially growing cells were trypsinized and resuspended in antibiotic containing medium (100 units penicillin G and 0.1 mg of streptomycin per mL). Single-cell suspensions displaying >97% viability by trypan blue dye exclusion test were subsequently counted. After counting, dilutions were made to give the appropriate cell densities for inoculation onto 96-well microtiter plates. Cells were inoculated in a volume of 100 μL per well at densities of 20,000 (WiDr), 15,000 (T-47D and A549), and 10,000 (HeLa, SW1573, and HBL-100) cells per well, based on their doubling times.
(§3) Chemosensitivity tests were performed using the SRB assay of the NCI with slight modifications. Briefly, pure compounds were initially dissolved in DMSO at 400 times the desired final maximum test concentration. Control cells were exposed to an equivalent concentration of DMSO (0.25% v/v, negative control). Each agent was tested in triplicate at different dilutions in the range 1–100 μM. Drug treatment started on day 1 after plating. Drug incubation periods were 48 h, after which cells were precipitated with 25 μL of ice-cold 50% (w/v) trichloroacetic acid and fixed for 60 min at 4 °C. Then, the SRB assay was performed. Optical density (OD) of each well was measured at 492 nm, using BioTek’s PowerWave XS Absorbance Microplate Reader (Highland Park, Winooski, VT, USA). Values were corrected for background OD from wells containing only culture medium. The percentage growth (PG) was calculated with respect to untreated control cells (C) at each level of drug concentrations based on the difference in OD at the start time (T0) and at the end of drug exposure (T), according to NCI formulas. Therefore, if T is greater than or equal to T0, the calculation is 100 × [(T–T0)/(C–T0)]. If T is lower than T0, denoting cell death, the calculation is 100 × [(T–T0)/(T0)]. The effect is defined as the growth percentage, where 50% growth inhibition (GI50) represents the concentration at which PG is +50. Based on these calculations, a PG value of 0 corresponds to the number of cells present at the beginning of drug exposure, while negative PG values denote net cell death.

HBL100 cells [2] = assay: Antiproliferative SRB assay (NCI protocol), 48 h; assay type: cell-based; details: Homo sapiens, read-out: 50% growth inhibition (GI50) ± SD, HBL100
Method: as §1, §2, §3

HeLa cells [3] = assay: Antiproliferative SRB assay (NCI protocol), 48 h; assay type: cell-based; details: Homo sapiens, read-out: 50% growth inhibition (GI50) ± SD, HeLa
Method: as §1, §2, §3

SW1573 cells = assay: Antiproliferative SRB assay (NCI protocol), 48 h; assay type: cell-based, human; details: for GI50: Homo sapiens, read-out: 50% growth inhibition (GI50) ± SD, SW1573; for Selectivity Index, SW1573: splenocyte CC50 versus SW1573 GI50
Method: as §1, §2, §3

T47-D cells = assay: Antiproliferative SRB assay (NCI protocol), 48 h; assay type: cell-based, human; details: for GI50: Homo sapiens, T47D, read-out: 50% growth inhibition (GI50) ± SD, T47-D; for Selectivity Index, T47-D: splenocyte CC50 versus T47-D GI50
Method: as §1, §2, §3

WiDr cells = assay: Antiproliferative SRB assay (NCI protocol), 48 h; assay type: cell-based, human; details: for GI50: Homo sapiens, read-out: 50% growth inhibition (GI50) ± SD, WiDr; for Selectivity Index, WiDr: splenocyte CC50 versus WiDr GI50
Method: as §1, §2, §3

[4] = Cytotoxicity on primary cell culture (propidium iodide, flow cytometry); assay type: cell-based
Method: The cytotoxicity of the sesquiterpene lactones and its derivatives was evaluated using mouse splenocytes. […] Cumanin derivatives (4–11) have shown CC50 values and selectivity indexes higher than natural compound 1. […] The incorporation of two triazole groups in cumanin (1) reduced cytotoxicity on normal cells and improved selectivity against tumor cell lines.
In a 96-well plate, spleen cells from Balb/c mouse (1.5 × 10^5) were incubated with different drug dilutions (200, 100, 50, 10, and 5 μg/mL) in RPMI medium containing 10% fetal calf serum. After 48 h of incubation at 37 °C (5% CO2), cells were harvested, washed once with PBS, and stained with 2.5 μg/mL propidium iodide (PI) for 5 min at room temperature. Subsequently, cell death was assessed by flow cytometry using a BD FACSaria II cytometer. Cells incubated only with a drug vehicle were used as a 100% viability control and death percentage was calculated according to the following formula: Death(%)=[1−(%PI^−cells)drug−treated/(%PI^−cells)100% viability control]×100.
Then the concentration capable of causing cell death in 50% of splenocytes (CC50) was determined using a non-linear regression approach.

[5] = tested on: human solid tumor cell lines (A549, HBL-100, HeLa, SW1573, T-47D, WiDr); assay: Antiproliferative SRB assay, whole panel of tumor cell lines; assay type: cell-based; details: for antiproliferative activity in words: tumor cell line panel, compared to cumanin (1)
Method: as §1, §2, §3

A549 cells [6] = assay: Antiproliferative SRB assay (NCI protocol), 48 h; assay type: cell-based, human; details: splenocyte CC50 versus A549 GI50
HBL100 cells [7] = assay: Antiproliferative SRB assay (NCI protocol), 48 h; assay type: cell-based, human; details: splenocyte CC50 versus HBL100 GI50
HeLa cells [8] = assay: Antiproliferative SRB assay (NCI protocol), 48 h; assay type: cell-based, human; details: splenocyte CC50 versus HeLa GI50
[9] = A549 (lung), SRB, 48 h drug exposure
[10] = HBL-100, HBL100 (breast), SRB, 48 h drug exposure
[11] = HeLa (cervix), SRB, 48 h drug exposure
[12] = SW1573 (non-small cell lung), SRB, 48 h drug exposure
[13] = T47-D (breast), SRB, 48 h drug exposure
[14] = WiDr (colon), SRB, 48 h drug exposure

Row | SMILES | GI50 (A549 cells [1]; [9]) [µM] | GI50 (HBL100 cells [2]; [10]) [µM] | GI50 (HeLa cells [3]; [11]) [µM] | GI50 (SW1573 cells; [12]) [µM] | Selectivity Index, SW1573 (SW1573 cells) | GI50 (T47-D cells; [13]) [µM] | Selectivity Index, T47-D (T47-D cells) | GI50 (WiDr cells; [14]) [µM] | Selectivity Index, WiDr (WiDr cells) | Selectivity Index, A549 (A549 cells [6]) | Selectivity Index, HBL100 (HBL100 cells [7]) | Selectivity Index, HeLa (HeLa cells [8]) | antiproliferative activity in words [5] | other results
1 | C=C1C(=O)O[C@@H]2C[C@@H](C)[C@@H]3C=CC(=O)[C@@]3(C)[C@@H](O[Si](C)(C)C(C)C)[C@H]12 [Compound 14] | 0.28 | 0.2 | 0.15 | 0.19 | 7.4 | 0.36 | 3.9 | 0.26 | 5.4 | 5.0 | 7.0 | 9.3 | – | CC50 at 48 h ([4]; Balb/c, mouse): 1.4 µM; GI50 ([5]; Homo sapiens, all tested tumor cell lines, SRB, 48 h, read-out: GI50 values, range over all tested cell lines): 0.15 to 0.59 µM
2 | C#CCOC1CC2C(C)CC3OC(=O)C(=C)C3CC2(C)C1OCC#C (centres unmarked) [Compound 9] | 17 | 19 | 24 | 20 | 4.7 | 24 | 3.9 | 2.1 | 44.5 | 5.5 | 4.9 | 3.9 | moderate activity | –
3 | C=C1C(=O)O[C@@H]2C[C@H](C)[C@@H]3C[C@H](OC(C)=O)[C@H](OC(C)=O)[C@@]3(C)C[C@H]12 [Compound 4] | 24 | 23 | 16 | 11 | 21.9 | 26 | 9.3 | 27 | 8.9 | 10.0 | 10.5 | 15.0 | moderate activity | –
4 | C=C1C(=O)O[C@@H]2C[C@H](C)[C@@H]3C[C@H](O[Si](C)(C)C(C)C)[C@H](O[Si](C)(C)C(C)C)[C@@]3(C)C[C@H]12 [Compound 6] | 1.2 | 2.3 | 1.3 | 1.2 | 76.5 | 2.2 | 41.7 | 2.4 | 38.2 | 76.5 | 39.9 | 70.6 | – | CC50 at 48 h ([4]; Balb/c, mouse): 91.8 µM
5 | C#CCOC1CC2C(C)CC3OC(=O)C(=C)C3CC2(C)C1O (centres unmarked) [Compound 8] | 18 | 17 | 19 | 28 | 6.4 | 24 | 7.5 | 7.2 | 25.1 | 10.0 | 10.6 | 9.5 | moderate activity | –
6 | C=C1C(=O)OC2CC(C)C3CC(OCc4cn(Cc5ccccc5)nn4)C(OCc4cn(Cc5ccccc5)nn4)C3(C)CC12 (centres unmarked) [Compound 11] | 3.7 | 6.4 | 5.9 | 4.7 | 111.5 | 9.7 | 54.0 | 2.3 | 227.9 | 141.6 | 81.9 | 88.8 | – | CC50 at 48 h ([4]; primary mouse splenocytes (spleen cells), Balb/c mouse spleen cells, 48 h incubation, PI staining, read-out: CC50 ± SD, splenocytes (concentration that causes 50% cell death)): 524 µM
7 | C=C1C(=O)O[C@@H]2C[C@@H](C)[C@@H]3C=CC(=O)[C@@]3(C)[C@@H](O)[C@H]12 [Compound 2, helenalin] | – | – | – | – | 0.5 | – | 0.4 | – | 0.4 | 0.5 | 0.4 | 0.7 | – | GI50 (A549 cells [1]; A549, 48 h): 2.3 µM; GI50 (HBL100 cells [2]; HBL-100, 48 h): 2.8 µM; GI50 (HeLa cells [3]; HeLa, 48 h): 1.7 µM; GI50 (SW1573 cells; SW1573, 48 h): 2.2 µM; GI50 (T47-D cells; 48 h): 2.9 µM; GI50 (WiDr cells; WiDr, 48 h): 2.7 µM; CC50 at 48 h ([4]; Balb/c mouse spleen cells, 48 h incubation, PI staining, read-out: CC50 ± SD, splenocytes (concentration that causes 50% cell death)): 1.2 µM
